This is an account of results in article PMC6940354, “Comparative Assessment of the New PDE7 Inhibitor – GRMS-55 and Lisofylline in Animal Models of Immune-Related Disorders: A PK/PD Modeling Approach” (Pharmaceutical Research, 2020).

Assay [1] has as its system cAMP degradation. Set-up: method as in PMID 28730281. To be noted: rats, cAMP as a marker of pharmacological response ref [9]; cited from earlier work.
The subject of assay [2] is TNF-α release from LPS-stimulated whole rat blood. Kind of assay: Inhibition of LPS-induced TNF-α release in whole rat blood. Type of assay: cell-based. To be noted: LPS 10 mg L^−1, 6 h incubation, compared to LPS-treated control. How it is done:
Stimulation of whole rat blood by LPS was performed on 96-well plates. […] Contents of each well (200 μL) consisted of heparinized rat blood containing 10 U heparin mL^−1 diluted with RPMI-1640 medium at a ratio of 1:1 (v/v). All compounds were dissolved in DMSO and added to blood (the final DMSO concentration in blood was 0.5%) 15 min prior to the addition of LPS dissolved in RPMI-1640 medium to achieve the LPS concentration of 10 mg L^−1. Both, LPS and DMSO were also added to control wells at the same concentrations. Additional control samples (for testing baseline TNF-α levels in blood) consisted of DMSO (0.5%) without LPS. The incubation was performed at 37°C in a humidified atmosphere of 5% CO2 in an MCO-5 AC-PE incubator (PHCbi, Japan). After 6 h of incubation, the plates were centrifuged for 10 min using PlateFuge MicroCentrifuge (Benchmark Scientific, USA). The individual plasma samples were harvested and stored at −80°C until analysis.
(§1) TNF-α levels in LPS-stimulated rat blood in vitro and in rat plasma samples from the in vivo studies were analyzed by the Rat TNF-α Quantikine ELISA Immunoassay Kit (R&D Systems, USA) according to the manufacturer’s instructions. The assay was linear at the range of 12.5–800 pg mL^−1. Levels of TNF-α in mice serum were measured by ELISA Kits for Tumor Necrosis Factor Alpha (Cloud-Clone Corp., USA). This assay was linear at the range of 15.6–1000 pg mL^−1. Absorbance was measured at 450 nm using a POLARstar Omega multi-mode microplate reader (BMG LABTECH, Germany).

Assay [3] relates to TNF-α plasma levels in male Wistar rats with LPS-induced endotoxemia. Kind of assay: LPS-induced endotoxemia in rats, PK/PD model of plasma TNF-α. Type of assay: in vivo, rat. How it is done: Male Wistar rats were implanted with catheters (SAI Infusion Technologies, USA) into the jugular vein and after a two-day recovery period they were administered with LPS dissolved in saline at a dose of 1 mg kg ^−1 into the tail vein simultaneously with one of the investigated compounds. […] The doses of the compounds were selected based on the literature data or results of our previous experiments. Each control group received LPS at the same IV dose and an appropriate volume of corresponding vehicle. […] The plasma samples were collected and stored at −80°C until analysis.
as §1
PK/PD and PK/PD/DIS progression models were developed considering the mechanism of action of the investigated compounds, the mechanisms of disease progression in the case of CIA, and the subsequent stages leading to TNF-α release in the case of LPS-induced endotoxemia. Various numbers of transit compartments were tested during development of the models, and the final models were chosen based on the goodness-of-fit criteria, such as AIC, SBC, a visual inspection of the fitting, and parameter precision. Estimated values of pharmacokinetic parameters were fixed during PK/PD and PK/PD/DIS progression model fitting procedures. […] PK/PD and PK/PD/DIS progression modeling were performed in ADAPT 5 software using the weighted least squares algorithm.
Therefore, as a result of PK/PD analysis, three sets of pharmacodynamic parameters were obtained based on the data from the three individual experiments.
The applied model is a modified indirect response model ([19]) with implemented transit compartments (T1-T4) that describe the delay of the observed pharmacodynamic response. In this scheme τ is the mean transit time, kin is the time limited (from 0 to tlag) zero-order rate constant of production of a TNF-α precursor (e.g., TNF-α mRNA). Different numbers of transit compartments were tested during the model development, but the best fit was observed using four transit compartments.
All Imax values were fixed to 1.

Assay [4] concerns LPS-stimulated murine macrophages (RAW263.7 cells). Further details: method as in PMID 14998551. As to conditions: cited from earlier work.
Assay [5] concerns TNF-α release in mice model of endotoxemia. Further details: method as in PMID 20389149. As to conditions: mice model of endotoxemia ref [19]; cited from earlier work.
In assay [6] the test system is LPS-stimulated human PBMC. Further details: method as in PMID 14998551. To be noted: LPS-stimulated human PBMC ref [31]; read-out: IC50, TNF-α production; cited from earlier work.
The test system of assay [7] is PDE4. Set-up: method as in PMID 14998551. As to conditions: ref [31]; read-out: IC50PDE4; cited from earlier work.

Values after ≈ are worked out from the molar mass of the structure shown.

As to `CC(=O)CCCCn1c(=O)c2c(ncn2C)n(C)c1=O` [PTX, Pentoxifylline], the “IC50 value for the inhibition of cAMP degradation” value in assay [1] was 4.48 mg/L. Further, the “Reduction of TNF-α levels in LPS-stimulated whole rat blood (result in words)” value in assay [2] is “significantly and with similar potency reduced”. The IC50 in assay [3] (Rattus norvegicus, iv, read-out: IC50, concentration of compound producing 50% of Imax (inhibition of TNF-α release in vivo), Final estimate (CV%), plasma concentration, PK/PD model, Imax fixed to 1, male Wistar rats, LPS 1 mg kg^−1 IV, IV GRMS-55 20, rolipram 5, (±)-LSF and PTX 40 and 80 mg kg^−1) was 14 µg/mL (≈ 50.3 µM). Further, the “activity in inhibiting TNF-α release in vivo, times lower than that of rolipram” value in assay [3] (ratio of IC50 values to rolipram) is ~ 39 times. For the same compound, the “TNF-α production (result in words)” value in assay [4] (RAW263.7 cells, concentrations of 500 and 1000 μM ref [31]) is “significantly inhibited TNF-α production”. Also, in assay [5], the “IC50 value for the inhibition of TNF-α release” value is 0.47 mg/L.

For `C[C@@H](O)CCCCn1c(=O)c2c(ncn2C)n(C)c1=O` [R-(−)-LSF], the “IC50 value for the inhibition of TNF-α release” value in assay [5] was 1.61 mg/L.

As for `COc1ccc(C(=O)Nc2c(Cl)cncc2Cl)cc1OC1CCCC1` [RP73401], the IC50 is 3.3 nM in assay [6]; 2.7 nM in assay [4] (LPS-stimulated murine macrophage cell line ref [31], read-out: IC50, TNF-α production); 1 nM in assay [7].
